Data published in article PMC11585924, “Direct measurements of neurosteroid binding to specific sites on GABAA receptors” (British journal of pharmacology, 2024).
“Also recorded” adds a separate entry of the source.

Experiments:
ELIC-α1^W246LGABAAR [1] = target: T1, ELIC-α1^W246LGABAAR (Homo sapiens, UniProt P14867, W273L); experiment: biochemical; format: binding
Description: ELIC-α1GABAAR was expressed and purified according to a previously published protocol ([Q. Chen et al., 2018]). The purified protein was aliquoted and stored at −80°C. Mutagenesis was performed as described in previous reports ([Kinde et al., 2016]) by oligonucleotide-directed mutagenesis using Phu polymerase (Thermo Fisher Scientific, Waltham, MA, USA) verified by sequencing. ELIC-α1GABAAR was expressed in OverExpress™ C43(D3) E. coli, derived from Rosetta™(DE3) cells under double selection with kanamycin and chloramphenicol for ELIC-α1GABAAR.
One hundred microlitres of purified ELIC-α1GABAAR (0.3 μM in Buffer A + 0.015% DDM) was transferred into a 50-μl window quartz cuvette (Starna Cells, Atascadero, CA, USA), which was placed in a cuvette holder maintained at 4°C. […] Two microlitres of NaI (AK Scientific, Union City, CA, USA; 5-M stock prepared in 0.1-Mm sodium hydrosulfite [Sigma-Aldrich, St. Louis, MO, USA]) was added to the protein (final concentration = 100 mM) and incubated for 10 min to reduce the fluorescence emission from hydrophilic tryptophans. To measure the concentration–dependent effects of NS on tryptophan fluorescence, 1 μl of NS from each 100× stock solution was sequentially added to the NaI-equilibrated protein and thoroughly mixed to achieve concentrations from 0.01 to 50 μM. […]

ELIC-α1GABAAR [2] = target: T2, ELIC-α1GABAAR (Homo sapiens, UniProt P14867); format: binding
Description: (§1) One hundred microlitres of ELIC-α1GABAAR (0.3 μM) was transferred into a 50-μl window quartz cuvette maintained at 4°C, and NaI was added to the protein sample to a final concentration of 100 mM and incubated for 10 min. MQ290 was then added at a concentration of 3 μM for 3α-OH NS inhibition curves or 1 μM for 3β-OH NS inhibition curves and incubated for 30 min. One-microlitre aliquots of 3α-OH and 3β-OH NS from their corresponding stock solutions (prepared in Buffer A + 0.015% DDM) were added to achieve concentrations between 0.01 and 30 μM. The background emission spectra of ligands alone were obtained for each ligand concentration in the absence of protein and were subtracted from the protein-ligand emission spectra to yield background subtracted data. The MQ290 FRET spectra for different ligand concentrations were estimated using the method described above. The 370-nm intensities of the FRET spectra were plotted against ligand concentration and fitted to a four-parameter logistic curve to obtain IC50 data (GraphPad Software version 9.4.0, San Diego, CA). Ki values were calculated using the relationship: Ki=IC50/1+LT/Kd
where LT is the concentration of MQ290 and Kd was determined from the MQ290 binding curve.

ELIC-α1^W246LGABAAR [3] = target: T1, ELIC-α1^W246LGABAAR; experiment: Inhibition of MQ290 FRET by NS in W246L receptors; format: binding; details: 30 μM NS; MQ290 1 μM
Description: as §1

ELIC-α1GABAAR [4] = target: T2, ELIC-α1GABAAR; experiment: KK200 photolabelling competition, middle-down MS; format: binding; details: 3 μM KK200, 30 μM competitor
Description: The synthesis of the NS photolabelling reagent KK200 is detailed in previous reports ([W. W. L. Cheng et al., 2018]; [Jiang et al., 2016]). […] The samples were then irradiated in a quartz cuvette for 5 min, using a photoreactor emitting light at >320 nm ([Germann et al., 2021]). Sample preparation for tryptic digestion and analysis by LC–MS was performed as previously described ([Sugasawa et al., 2019]). Peptides were separated on a home-packed PLRP-S (Agilent, Santa Clara, CA, USA) column (10 cm × 75 μm, 300 Å) using a 135-min gradient from 10% to 90% acetonitrile and introduced to an Orbitrap-Elite mass spectrometer (Thermo Fisher Scientific, Waltham, MA, USA; RRID:SCR_020548) at 800 nl·min^−1 with a nanospray source. MS acquisition was set as an MS1 Orbitrap scan (resolution of 60,000) followed by top 20 MS2 Orbitrap scans (resolution of 15,000) using data-dependent acquisition and exclusion of singly charged precursors. Fragmentation was performed using high-energy dissociation with normalized energy of 35%. Analysis of data sets was performed using Xcalibur (Thermo Fisher Scientific, Waltham, MA, USA; RRID: SCR_014593) to manually search for TM1, TM2, TM3 or TM4 tryptic peptides with or without NS photolabelling modifications. Photolabelling efficiency was estimated by generating extracted chromatograms of unlabelled and labelled peptides, determining the area under the curve, and calculating the (area of labelled peptide/(area of unlabelled + area of labelled peptide). MS2 spectra of photolabelled TMD peptides were analysed by manual assignment of fragment ions with and without photolabelling modification.

α1β3 GABAA receptors = target: α1β3 GABAA receptors; parameters: method as in Tateiwa et al., 2023; details: ref Tateiwa et al., 2023; read-out: apparent Kd; cited from earlier work

T2 sequence (P14867 other isoform, or with tags, fused parts or gaps): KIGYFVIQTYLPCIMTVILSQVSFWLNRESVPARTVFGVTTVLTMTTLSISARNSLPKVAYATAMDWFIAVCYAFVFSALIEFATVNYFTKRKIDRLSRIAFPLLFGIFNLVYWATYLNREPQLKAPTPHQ
T2 sequence (P0C7B7 1-198, further chain): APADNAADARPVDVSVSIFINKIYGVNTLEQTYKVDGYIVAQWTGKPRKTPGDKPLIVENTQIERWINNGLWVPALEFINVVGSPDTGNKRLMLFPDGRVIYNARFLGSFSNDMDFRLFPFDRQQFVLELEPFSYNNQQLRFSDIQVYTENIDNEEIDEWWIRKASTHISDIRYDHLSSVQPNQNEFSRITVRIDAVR
T1 sequence (P14867 other isoform, or with tags, fused parts or gaps W273L): as the sequence (P14867 other isoform, or with tags, fused parts or gaps) above, with W25L counted along it
T1 sequence (P0C7B7 1-198, further chain): as the sequence (P0C7B7 1-198, further chain) above

**Q.** For `CC(=O)[C@H]1CC[C@H]2[C@@H]3CC[C@H]4C[C@H](O)CC[C@]4(C)[C@H]3CC[C@]12C` [AlloP, allopregnanolone], which IC50 (ELIC-α1^W246LGABAAR [1]) is on record?
**A.** 500 ± 210 nM

**Q.** What about the Hill slope (ELIC-α1GABAAR [2]; 3α-OH NS, MQ290 3 μM) of the same molecule?
**A.** −1.89 ± 0.26

**Q.** And the “mechanism of inhibition of MQ290 binding” value (ELIC-α1GABAAR [2]; MQ290 binding curves with 3×Kd and 30 μM NS)?
**A.** competitive interaction

**Q.** And the “inhibition of remaining MQ290 FRET signal in W246L” value (ELIC-α1^W246LGABAAR [3])?
**A.** reduced by neither

**Q.** And the “prevention of KK200 photolabelling of TM3 (Y309)” value (ELIC-α1GABAAR [4])?
**A.** significantly different than control; also recorded: prevented

**Q.** And the Kd (α1β3 GABAA receptors)?
**A.** 100 ± 50 nM
